{
  "source": "paper doi:10.1101/2021.11.15.468710v2",
  "about": "(biorxiv, 2021)",
  "target": "intact V-ATPase (purified yeast V-ATPase) (Saccharomyces cerevisiae, UniProt P23968+P25515+P32563+P32842)",
  "assay": "enzyme-coupled ATPase assay",
  "assay_type": "biochemical",
  "data": [
    {"smiles": "CO/C1=C\\C(C)=C\\[C@@H](C)[C@@H](O)[C@@H](C)C/C(C)=C/C=C/[C@H](OC)[C@@H]([C@@H](C)[C@@H](O)[C@H](C)[C@@]2(O)C[C@@H](O)[C@H](C)[C@@H](C(C)C)O2)OC1=O", "note": "[bafilomycin A1]", "values": [
      {"measurement": "IC50", "value": "< 1.11", "unit": "nM"}
    ]}
  ]
}
